Laboratory results: the supplement of paper PMC10307832

Key:
Assay in all cases: relative viability (nuclei count vs DMSO), 5 days (fraction); higher = more cells survive
[1] = tested on: NCI-H1650
How it was run: (§1)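 Relative viability divides the nuclei count in treated wells by that in vehicle wells. Lung cancer cell lines were seeded in 1536-well plates, dosed by pin tool the next day, and fixed and stained after 5 days in one step with final 0.05% Triton X-100, 1% formaldehyde and 1 ug/ml Hoechst. Dosing was a single drug or a fixed anchor-drug dose plus five library-drug doses (not always all listed) in √10 steps, and values are medians of duplicate plates imaged at 4×.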

[2] = tested on: NCI-H460
How it was run: as §1

[3] = tested on: H3255
How it was run: as §1

[4] = tested on: NCI-H322M
How it was run: as §1

[5] = tested on: SW 1573
How it was run: as §1

[6] = tested on: NCI-H3122
How it was run: as §1

[7] = tested on: NCI-H1355
How it was run: as §1

[8] = tested on: NCI-H1944
How it was run: as §1

[9] = tested on: NCI-H2347
How it was run: as §1

[10] = tested on: EKVX
How it was run: as §1

[11] = tested on: ChaGo-K-1
How it was run: as §1

[12] = tested on: NCI-H650
How it was run: as §1

O=C(O)CCCCC(CCSCc1ccccc1)SCc1ccccc1 (configuration not stated) [CPI-613] + Cc1cc(Nc2cc(N3CCN(C)CC3)nc(Sc3ccc(NC(=O)C4CC4)cc3)n2)n[nH]1 [Tozasertib] (partner 0.1 µM)
relative viability ([1]; first compound 50 µM): 0.417
relative viability ([1]; first compound 158.11 µM): 0.0645
relative viability ([1]; first compound 500 µM): 0.0151
relative viability ([2]; first compound 5 µM): 0.497
relative viability ([2]; first compound 15.81 µM): 0.28
relative viability ([2]; first compound 50 µM): 0.457
relative viability ([2]; first compound 158.11 µM): 0.371
relative viability ([2]; first compound 500 µM): 0.418
relative viability ([3]; first compound 5 µM): 0.529
relative viability ([3]; first compound 15.81 µM): 0.615
relative viability ([3]; first compound 50 µM): 0.579
relative viability ([3]; first compound 500 µM): 0.753
relative viability ([4]; first compound 5 µM): 0.499
relative viability ([4]; first compound 15.81 µM): 0.452
relative viability ([4]; first compound 50 µM): 0.499
relative viability ([4]; first compound 158.11 µM): 0.25
relative viability ([4]; first compound 500 µM): 0.0634
relative viability ([5]; first compound 5 µM): 0.232
relative viability ([5]; first compound 15.81 µM): 0.196
relative viability ([5]; first compound 50 µM): 0.15
relative viability ([5]; first compound 158.11 µM): 0.103
relative viability ([5]; first compound 500 µM): 0.0651
relative viability ([6]; first compound 5 µM): 0.357
relative viability ([6]; first compound 15.81 µM): 0.363
relative viability ([6]; first compound 50 µM): 0.348
relative viability ([6]; first compound 158.11 µM): 0.211
relative viability ([6]; first compound 500 µM): 0.0108
relative viability ([7]; first compound 5 µM): 0.541
relative viability ([7]; first compound 15.81 µM): 0.512
relative viability ([7]; first compound 50 µM): 0.508
relative viability ([7]; first compound 158.11 µM): 0.314
relative viability ([7]; first compound 500 µM): 0.112
relative viability ([8]; first compound 5 µM): 0.264
relative viability ([8]; first compound 15.81 µM): 0.233
relative viability ([8]; first compound 50 µM): 0.268
relative viability ([8]; first compound 158.11 µM): 0.195
relative viability ([8]; first compound 500 µM): 0.127
relative viability ([9]; first compound 5 µM): 0.526
relative viability ([9]; first compound 15.81 µM): 0.561
relative viability ([9]; first compound 50 µM): 0.566
relative viability ([9]; first compound 158.11 µM): 0.552
relative viability ([9]; first compound 500 µM): 0.524
relative viability ([10]; first compound 5 µM): 0.384
relative viability ([10]; first compound 15.81 µM): 0.401
relative viability ([10]; first compound 50 µM): 0.366
relative viability ([10]; first compound 158.11 µM): 0.368
relative viability ([10]; first compound 500 µM): 0.41
relative viability ([11]; first compound 5 µM): 0.207
relative viability ([11]; first compound 15.81 µM): 0.185
relative viability ([11]; first compound 50 µM): 0.234
relative viability ([11]; first compound 158.11 µM): 0.148
relative viability ([11]; first compound 500 µM): 0.16
relative viability ([12]; first compound 5 µM): 0.702
relative viability ([12]; first compound 15.81 µM): 0.623
relative viability ([12]; first compound 50 µM): 0.699
relative viability ([12]; first compound 158.11 µM): 0.546
relative viability ([12]; first compound 500 µM): 0.586
